ChEMBL document CHEMBL2150986, “Synthesis and biological evaluation of 1-benzylidene-3,4-dihydronaphthalen-2-one as a new class of microtubule-targeting agents” (J Med Chem, 2012)

How the values were obtained:
Mus musculus [1] = test: Toxicity in ICR mouse assessed as mortality at 50 mg/kg, ip administered on day 1; type: organism-based; design: dose 50 mg/kg, route intraperitoneal; settings: in vivo
CCRF-CEM = test: Cytotoxicity against human CEM cells after 72 hrs by MTT assay; type: functional, cell-based
Mus musculus [2] = test: Toxicity in nude BALB/c mouse xenografted with human HT-29 cells assessed as mortality at 30 mg/kg, ip qd after 21 days; type: organism-based; design: dose 30 mg/kg, route intraperitoneal; settings: in vivo, 504 h
Mus musculus [3] = test: Toxicity in nude BALB/c mouse xenografted with human HT-29 cells assessed as mortality at 50 mg/kg, ip qd after 21 days; type: organism-based; design: dose 50 mg/kg, route intraperitoneal; settings: in vivo, 504 h
HT-29 [4] = test: Antitumor activity against human HT-29 cells xenografted in nude BALB/c mouse assessed as decrease in tumor volume at 30 mg/kg, ip qd measured on day 21 relative to vehicle-treated control; type: functional; settings: route intraperitoneal
HT-29 [5] = test: Antitumor activity against human HT-29 cells xenografted in nude BALB/c mouse assessed as decrease in tumor volume at 50 mg/kg, ip qd measured on day 21 relative to vehicle-treated control; type: functional; settings: route intraperitoneal
Mus musculus [6] = test: Toxicity in nude BALB/c mouse xenografted with human HT-29 cells assessed as body weight change at 30 mg/kg, ip qd after 21 days (reference value: 2.7 g); type: organism-based; design: dose 30 mg/kg, route intraperitoneal; settings: in vivo, 504 h
Mus musculus [7] = test: Toxicity in nude BALB/c mouse xenografted with human HT-29 cells assessed as body weight change at 50 mg/kg, ip qd after 21 days (reference value: 2.7 g); type: organism-based; design: dose 50 mg/kg, route intraperitoneal; settings: in vivo, 504 h
Mus musculus [8] = test: Toxicity in nude BALB/c mouse xenografted with human HT-29 cells assessed as effect on WBC count at 30 mg/kg, ip qd after 21 days (reference value: 25.38 +/- 0.22 x 10^3 mm'-3); type: organism-based; design: dose 30 mg/kg, route intraperitoneal; settings: in vivo, 504 h
Mus musculus [9] = test: Toxicity in nude BALB/c mouse xenografted with human HT-29 cells assessed as effect on WBC count at 50 mg/kg, ip qd after 21 days (reference value: 25.38 +/- 0.22 x 10^3 mm'-3); type: organism-based; design: dose 50 mg/kg, route intraperitoneal; settings: in vivo, 504 h
Mus musculus [10] = test: Toxicity in nude BALB/c mouse xenografted with human HT-29 cells assessed as effect on lymphocyte count at 30 mg/kg, ip qd after 21 day (reference value: 15.88 +/- 0.41 x 10^3 mm'-3); type: organism-based; design: dose 30 mg/kg, route intraperitoneal; settings: in vivo, 504 h
Mus musculus [11] = test: Toxicity in nude BALB/c mouse xenografted with human HT-29 cells assessed as effect on lymphocyte count at 50 mg/kg, ip qd after 21 days (reference value: 15.88 +/- 0.41 x 10^3 mm'-3); type: organism-based; design: dose 50 mg/kg, route intraperitoneal; settings: in vivo, 504 h
Mus musculus [12] = test: Toxicity in nude BALB/c mouse xenografted with human HT-29 cells assessed as effect on platelet count at 30 mg/kg, ip qd after 21 days (reference value: 1509 +/- 34 x 10^3 mm'-3); type: organism-based; design: dose 30 mg/kg, route intraperitoneal; settings: in vivo, 504 h
Mus musculus [13] = test: Toxicity in nude BALB/c mouse xenografted with human HT-29 cells assessed as effect on platelet count at 50 mg/kg, ip qd after 21 days (reference value: 1509 +/- 34 x 10^3 mm'-3); type: organism-based; design: dose 50 mg/kg, route intraperitoneal; settings: in vivo, 504 h
Mus musculus [14] = test: Toxicity in nude BALB/c mouse xenografted with human HT-29 cells assessed as effect on ALT level at 30 mg/kg, ip qd after 21 days (reference value: 28 +/- 0.4 IU/L); type: organism-based; design: dose 30 mg/kg, route intraperitoneal; settings: in vivo, 504 h
Mus musculus [15] = test: Toxicity in nude BALB/c mouse xenografted with human HT-29 cells assessed as effect on ALT level at 50 mg/kg, ip qd after 21 days (reference value: 28 +/- 0.4 IU/L); type: organism-based; design: dose 50 mg/kg, route intraperitoneal; settings: in vivo, 504 h
Mus musculus [16] = test: Toxicity in nude BALB/c mouse xenografted with human HT-29 cells assessed as effect on ALP level at 30 mg/kg, ip qd after 21 days (reference value: 107.6 +/- 0.8 IU/L); type: organism-based; design: dose 30 mg/kg, route intraperitoneal; settings: in vivo, 504 h
Mus musculus [17] = test: Toxicity in nude BALB/c mouse xenografted with human HT-29 cells assessed as effect on ALP level at 50 mg/kg, ip qd after 21 days (reference value: 107.6 +/- 0.8 IU/L); type: organism-based; design: dose 50 mg/kg, route intraperitoneal; settings: in vivo, 504 h
Mus musculus [18] = test: Toxicity in nude BALB/c mouse xenografted with human HT-29 cells assessed as change in kidney weight at 50 mg/kg, ip qd after 21 days relative to vehicle-treated control; type: organism-based; design: dose 50 mg/kg, route intraperitoneal; settings: in vivo, 504 h
Mus musculus [19] = test: Toxicity in nude BALB/c mouse xenografted with human HT-29 cells assessed as change in liver weight at 50 mg/kg, ip qd after 21 days relative to vehicle-treated control; type: organism-based; design: dose 50 mg/kg, route intraperitoneal; settings: in vivo, 504 h
Mus musculus [20] = test: Toxicity in nude BALB/c mouse xenografted with human HT-29 cells assessed as change in spleen weight at 50 mg/kg, ip qd after 21 days relative to vehicle-treated control; type: organism-based; design: dose 50 mg/kg, route intraperitoneal; settings: in vivo, 504 h
Mus musculus [21] = test: Toxicity in ICR mouse assessed as body weight loss at 50 mg/kg, ip administered on day 1 measured for 10 days relative to vehicle-treated control; type: organism-based; design: dose 50 mg/kg, route intraperitoneal; settings: in vivo, 240 h
HCT-116 = test: cells; settings: Homo sapiens, HCT-116, 72 h
MDA-MB-435 = test: cells; settings: Homo sapiens, MDA-MB-435, 72 h
Description: Cytotoxicity against human MDA-MB-435 cells after 72 hrs by MTT assay

In the case of `COc1ccc(/C=C\c2cc(OC)c(OC)c(OC)c2)cc1O` [COMBRETASTATIN A4], the Activity (Mus musculus [1]) is reported as “Non-toxic”, the IC50 (CCRF-CEM) is reported as 1 nM and the Activity (Mus musculus [2]) is reported as “Non-toxic”. The Activity (Mus musculus [3]) was “Non-toxic”, the T/C (HT-29 [4]) was 53% and the T/C (HT-29 [5]) was 47%. For the same compound, the Activity (Mus musculus [6]) was 1.7 g, the Activity (Mus musculus [7]) was 1.8 g and the Activity (Mus musculus [8]) was 19.34 ×10³ /mm3. For the same compound, the Activity (Mus musculus [9]) was 12.09 ×10³ /mm3, the Activity (Mus musculus [10]) was 10.62 ×10³ /mm3 and the Activity (Mus musculus [11]) was 4.14 ×10³ /mm3. The Activity (Mus musculus [12]) was 1923 ×10³ /mm3, the Activity (Mus musculus [13]) was 2206 ×10³ /mm3 and the Activity (Mus musculus [14]) was 25 IU/L. The Activity (Mus musculus [15]) was 66.3 IU/L, the Activity (Mus musculus [16]) was 105.3 IU/L and the Activity (Mus musculus [17]) was 149.3 IU/L. For the same compound, the Activity (Mus musculus [18]) was “Toxic”, the Activity (Mus musculus [19]) was “Toxic” and the Activity (Mus musculus [20]) was “Toxic”. The Activity (Mus musculus [21]) was “Toxic”, the IC50 (HCT-116) was 1 nM and the IC50 (MDA-MB-435) was 1 nM.
